Source: patent US11608320B2, “Oxazolidinone hydroxamic acid derivatives” (KUWAIT UNIVERSITY, priority 2020, dated 2023)
Like-named read-outs stand apart in the source and are kept apart here.

Key:
[1] = system: LTC4 release from IgE/antigen-activated mouse mast cells (BMMC); assay: Inhibition of LTC4 release in allergen/IgE-activated bone marrow-derived mouse mast cells; type: cell-based; conditions: for IC50: IgE/antigen (DNP-BSA)-activated BMMC, read-out: Inhibitory Activity IC50, Mouse mast cell LTC4
Text: (§1) Inhibition of LTC4 release and degranulation in allergen/IgE-activated bone marrow-derived mouse mast cells (BMMC): Bone marrow-derived mast cells (BMMC) were generated from pathogen-free 5-7 week old male Balb/c mice according to the method of Davis et al., [2004] (Davis, B. J., et al., (2004), Journal of Immunology, 173: 6914-6920). Essentially, bone marrow cells were obtained by flushing of the femoral bone marrow and cultured in RPMI 1640 medium supplemented with 10% FBS, 100 U/ml penicillin, and 100 μg/ml streptomycin, 25 mM HEPES, 1.0 mM sodium pyruvate, 0.1 mM nonessential amino acids, 0.0035% 2-mercaptoethanol, and 30 ng/ml mouse recombinant IL-3, with culture medium replaced every two days. Cells were used after 4-8 weeks of culture, by which time at least 97% of the cells would have differentiated into mast cells.
(§2) The generated BMMCs were seeded at 5×10^4 cells/well in a 96-well flat-bottom culture plate and passively sensitized overnight with 0.5 μg/ml anti-DNP monoclonal IgE antibody (clone SPE-7, Sigma-Aldrich, St. Louis, Mo., USA). The cells were then washed twice to remove any unbound antibody and subsequently re-suspended in reaction buffer (135 mM NaCl, 5 mM KCl, 1.8 mM CaCl2), 1 mM MgCl2, 5.6 mM glucose, 0.05% BSA and 20 mM HEPES, pH 7.4). They were then pre-incubated with the test compounds (0.01-30 μM) or the solvent (0.05% DMSO) for 15 min before being stimulated with the specific antigen, DNP-BSA (30 ng/ml). After 30 min incubation at 37° C., the amount of LTC4 released into the supernatant (as index of 5-LO activity) was determined by ELISA as described below.
(§3) Assay of released leukotrienes/β-hexoseaminidase enzyme: Appropriately diluted supernatants were assayed for the released LTs (LTB4 and LTC4), by the enzyme immunoassay (EIA) method using assay kits supplied by R&D Systems (Minneapolis, Minn., USA) and following the manufacturer's instructions.

[2] = system: degranulation of bone marrow-derived mouse mast cells; assay: Inhibition of degranulation (β-hexoseaminidase release) in allergen/IgE-activated BMMC; type: cell-based; conditions: anti-DNP IgE sensitized, DNP-BSA 30 ng/ml, 30 min
Text: as §1
as §2, with “They were then pre-incubated with the test compounds (0.01-30 μM) or the solvent (0.05% DMSO) for 15 min before being stimulated with the specific antigen, DNP-BSA (30 ng/ml).” left out
The concurrently-released granular enzyme, β-hexoseaminidase (as index of degranulation) was determined as described below.
The beta-hexoseaminidase released into the supernatant by the degranulating BMMCs was determined colorimetrically using p-nitrophenyl-N-acetyl-β-D-glucosaminide as substrate. […] The absorbance of the colored product (p-nitrophenol) was then read at 405 nm in a microplate reader. Results were expressed as percentage of the total cell content (determined in cells lysed with 0.1% triton-x-100).

[3] = system: zymosan-induced peritonitis; assay: Zymosan-induced peritoneal inflammation in mice; type: in vivo, mouse; conditions: 30 min before zymosan i.p., peritoneal exudate at 2 h
Text: Inhibition of zymosan-induced peritoneal inflammation in mice: Female Balb/c mice, 6-8 weeks old, obtained from the Animal Resources Center of the Health Sciences Center, Kuwait University, were used. They were maintained under temperature-controlled conditions with an artificial 12-h light/dark cycle and allowed standard chow and water ad libitum. The study protocol was approved by the “Health Sciences Center Animal Welfare Committee” and complied with the “Guidelines for the Care and Use of Laboratory Animals” of the Health Sciences Centre, Kuwait University. The zymosan-induced peritonitis model-a recognized LT-mediated inflammatory reaction, described particularly in Hanke et al., 2013 ([…]., et al. (2013). Journal of medicinal chemistry, 56(22), 9031-9044) was used. […] After 30 min, all groups were injected intraperitonally with 0.2 ml of activated zymosan (2 mg/ml) except the control group that received 0.2 ml PBS. After 2 h, all animals were killed and the peritoneal exudate was collected by washing the cavity with 3 ml of heparinized (10 IU/ml) PBS.

[4] = molecular target: T1, recombinant human 5-LO enzyme (Homo sapiens, UniProt P09917); assay: Direct 5-LO inhibitory activity in a cell-free assay (H2DCF-DA fluorescence); type: biochemical
T1 sequence (P09917 1-674): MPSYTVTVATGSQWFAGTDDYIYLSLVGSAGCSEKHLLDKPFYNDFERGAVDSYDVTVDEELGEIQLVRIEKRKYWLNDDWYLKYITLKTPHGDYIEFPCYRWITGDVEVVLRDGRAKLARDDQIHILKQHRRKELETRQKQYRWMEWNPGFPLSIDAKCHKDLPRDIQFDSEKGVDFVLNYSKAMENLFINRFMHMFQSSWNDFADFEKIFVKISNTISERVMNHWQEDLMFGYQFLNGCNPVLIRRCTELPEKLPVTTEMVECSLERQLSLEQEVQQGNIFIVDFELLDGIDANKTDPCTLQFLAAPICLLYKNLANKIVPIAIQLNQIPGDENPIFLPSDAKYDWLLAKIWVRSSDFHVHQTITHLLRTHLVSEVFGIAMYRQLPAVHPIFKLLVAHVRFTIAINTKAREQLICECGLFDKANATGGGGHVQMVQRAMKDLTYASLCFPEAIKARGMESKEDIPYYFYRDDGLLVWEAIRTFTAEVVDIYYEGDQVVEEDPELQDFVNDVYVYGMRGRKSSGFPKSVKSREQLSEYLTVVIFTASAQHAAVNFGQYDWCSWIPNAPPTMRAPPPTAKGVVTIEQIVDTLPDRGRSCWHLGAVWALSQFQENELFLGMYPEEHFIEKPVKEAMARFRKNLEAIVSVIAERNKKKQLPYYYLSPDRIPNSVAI
Method: H2DCF-DA (60 μM) was first pre-cleaved by incubating with 450 mU/ml recombinant human 5-LO enzyme in Tris buffer (containing 50 mM Tris, pH=7.5, 2 mM EDTA, 2 mM CaCl2), 1 mM dithiothreitol (DTT) and 0.6 U/ml glutathione peroxidase) for 10 min at room temperature. […] After 10 min incubation at room temperature, the reaction was started with the addition of 50 μl of the substrate solution (Tris buffer containing 20 μM ATP and 20 μM arachidonic acid). After a further 20 min, the reaction was terminated with 100 μl acetonitrile. Fluorescence was read at 500 nm excitation and 520 emission, with Novostar® microplate reader (BMG Labtech, Offenburg, Germany). Appropriate controls, including 100 μM nordihydroguaiaretic acid (NDGA), were included to isolate only the 5-LO-attributable, NDGA-inhibitable RFU values.

[5] = system: 5-LO-dependent generation of leukotriene B4 (LTB4) from activated human whole blood; assay: Inhibition of LTB4 generation from LPS/FMLP-activated human whole blood; type: cell-based; conditions: LPS-primed, FMLP-stimulated human whole blood; read-out: Inhibitory Activity IC50, Human whole blood LTB4
Method: Inhibition of LTB4 generation from human whole blood: All compounds were evaluated for inhibitory activity against 5-LO-dependent generation of leukotriene B4 (LTB4) from activated human whole blood. With ethical approval from the Health Sciences Center Ethical Committee of Kuwait University, heparinized fresh human blood samples from apparently healthy individuals were obtained from the Kuwait Central Blood Bank. Aliquots of 185 μl of whole blood were dispensed into each well of 96-well culture plate containing 5 μl of the priming agent, lipopolysaccharide (LPS) at a final concentration of 1 μg/ml. […] After further incubation for 15 min at 37° C., 5 μl of N-formylmethionyl-leucyl-phenylalanine (FMLP), at […] final concentration, was added to stimulate LT production. The reaction was stopped after 15 min, and the supernatants recovered by centrifugation and stored at −40° C. pending analysis of the LTB4 content.
as §3

[6] = system: LTC4 release from isolated human monocytes; assay: Inhibition of LTC4 release from isolated human monocytes (A23187-stimulated); type: cell-based; conditions: read-out: Inhibitory Activity IC50, Human monocyte LTC4
Method: Inhibition of LTC4 release from isolated human monocytes: Mononuclear cells were first isolated from heparinized fresh blood using the Ficoll-Hypaque gradient centrifugation method. Monocytes were subsequently purified by adherence to plastic according to standard protocols. The purity of the adherent monocytes (CD14+) was routinely confirmed by flow cytometry to be >95% and viability (by trypan blue exclusion method) was routinely >97%. Adherent monocytes were then washed and incubated in 190 μl culture medium RPMI-1640 supplemented with 100 U/ml penicillin, 100 μg/ml streptomycin and 10% heat-inactivated fetal bovine serum (Sigma-Aldrich, St Louis, Mo., USA). […] After a further incubation for 15 min, the culture supernatants were recovered by centrifugation and stored at −40° C. pending LTC4 determination.
as §3

[7] = cell-free, recombinant human 5-LO, read-out: Inhibitory Activity IC50, Human recomb. 5-LO

SMILES	IC50 [4] [µM]	IC50 [5] [µM]	IC50 ([6]; Monocyte) [µM]	IC50 ([1]; Mus musculus) [µM]	IC50 [4, 7] [µM]	melting point [°C]	further results
CC(c1cc2ccccc2s1)N(O)C(N)=O (racemic) [Zileuton, (±)1-(1-(benzo[b]thiophen-2-yl)ethyl)-1-hydroxyurea, reference compound]							Inhibition of generation of LTC4 from IgE/allergen-activated mast cells (FIG. 2A) ([1]; BMMC, anti-DNP IgE sensitized, DNP-BSA 30 ng/ml, 30 min): equally effective in inhibiting the generation of LTC4; Inhibition of degranulation (release of granular β-hexoseaminidase) (FIG. 2B) [2]: only the representative compounds were able to inhibit degranulation; Net Exudate Vol ([3]; 3 mg/kg s.c.): 0.14 ± 0.04 mL; Total Cell No ([3]; 3 mg/kg s.c.): 16.7 ± 2.8 ×10^6; Total LTC4 ([3]; 3 mg/kg s.c.): 71.0 ± 12.4 ng; Net Exudate Vol ([3]; 10 mg/kg s.c.): 0.20 ± 0.07 mL; Total Cell No ([3]; 10 mg/kg s.c.): 24.9 ± 2.1 ×10^6; Total LTC4 ([3]; 10 mg/kg s.c.): 97.2 ± 47.3 ng; Net Exudate Vol ([3]; 30 mg/kg s.c.): no significant effect on exudate volume; Total Cell No ([3]; 30 mg/kg s.c.): 19.1 ± 4.4 ×10^6; Total LTC4 ([3]; 30 mg/kg s.c.): 48.3 ± 9.8 ng; Net Exudate Vol ([3]; 30 mg/kg s.c., listed as Zil): 0.10 ± 0.05 mL
CC(=O)N(O)C[C@H]1CN(c2ccc(N3CCOCC3)c(F)c2)C(=O)O1 [PH-23]	> 30	3.3	18.7	20.7			
CCC(=O)N(O)C[C@H]1CN(c2ccc(N3CCOCC3)c(F)c2)C(=O)O1 [PH-199]	11.8	1.4	8.2	6.3			
CC(C)C(=O)ON(C[C@H]1CN(c2ccc(N3CCOCC3)c(F)c2)C(=O)O1)C(=O)C(C)C [PH-204]		10.7	> 50	21.8	> 30		
CC(C)C(=O)N(O)C[C@H]1CN(c2ccc(N3CCOCC3)c(F)c2)C(=O)O1 [PH-205]	3.9	2.3	14.1	13.8			
O=C(ON(C[C@H]1CN(c2ccc(N3CCOCC3)c(F)c2)C(=O)O1)C(=O)C1CC1)C1CC1 [PH-206]		7.9	> 50	37.3	> 30		
O=C(C1CC1)N(O)C[C@H]1CN(c2ccc(N3CCOCC3)c(F)c2)C(=O)O1 [PH-211]	3.5	1.3	7.5	8.7			
NC(=O)N(O)C[C@H]1CN(c2ccc(N3CCOCC3)c(F)c2)C(=O)O1 [PH-238, (R)-1-((3-(3-fluoro-4-morpholinophenyl)-2-oxooxazolidin-5-yl)methyl)-1-hydroxyurea]		7.9	30.7	23.8	14.7	125 to 128	
CC(C)CC(=O)N(O)C[C@H]1CN(c2ccc(N3CCOCC3)c(F)c2)C(=O)O1 [PH-239, (R)—N-((3-(3-fluoro-4-morpholinophenyl)-2-oxooxazolidin-5-yl)methyl)-N-hydroxy-3-methylbutanamide]					4.7	122 to 124.5	
CCCCC(=O)N(O)C[C@H]1CN(c2ccc(N3CCOCC3)c(F)c2)C(=O)O1 [PH-241, (R)—N-((3-(3-fluoro-4-morpholinophenyl)-2-oxooxazolidin-5-yl)methyl)-N-hydroxypentanamide]					3.3	121 to 122.5	
O=C(C1CCCC1)N(O)C[C@H]1CN(c2ccc(N3CCOCC3)c(F)c2)C(=O)O1 [PH-244, (R)—N-((3-(3-fluoro-4-morpholinophenyl)-2-oxooxazolidin-5-yl)methyl)-N-hydroxycyclopentane-carboxamide]						164.5 to 166.5	
O=C(C1CCC1)N(O)C[C@H]1CN(c2ccc(N3CCOCC3)c(F)c2)C(=O)O1 [PH-245, (R)—N-((3-(3-fluoro-4-morpholinophenyl)-2-oxooxazolidin-5-yl)methyl)-N-hydroxycyclobutane-carboxamide]						132 to 133.5	
CCCCCC(=O)ON(C[C@H]1CN(c2ccc(N3CCOCC3)c(F)c2)C(=O)O1)C(=O)CCCCC [PH-246]		1.5			21.6		IC50 [6]: 7.1 µM; IC50 [1]: 3.3 µM
